Entries after “also recorded” stand apart in the source; their conditions may differ.
Assays:
Format in all cases: in vivo, mouse
Fbn1C1039G/+ mice [1] = experiment: Lung distal airspace caliber (mean linear intercept) in Fbn1C1039G/+ mice treated postnatally with losartan; conditions: for Distal airspace caliber / alveolar septation, in words: postnatal losartan, monopotassium salt
Source text: This abnormality correlated with increased TGF-β signaling and was prevented by prenatal administration of TGF-β NAb.

Fbn1C1039G/+ mice [2] = experiment: Muscle regeneration after cardiotoxin-induced injury in Fbn1C1039G/+ mice; conditions: 4 and 18 days after injury, monopotassium salt
Protocol: All mouse protocols were approved by the Animal Care and Use Committee of Johns Hopkins University School of Medicine. Creation of the mouse line harboring the Fbn1 mutation C1039G has been previously described (Judge, D. P. et al. (2004) J Clin Invest 114, 172-81). All analyses were performed in male mice after back-crossing (>9 times) this mutation into the C57BL/6J background, allowing valid comparisons between litters. Mice were sacrificed with an inhalation overdose of halothane (Sigma-Aldrich) or by cervical dislocation. […] Subsequently, mice were analyzed at 4, 7, 18 and 28 days after injury. For regeneration experiments in mdx mice we injected 150 μl of cardiotoxin into the tibialis anterior muscle of wild-type and mdx mice, either treated or untreated with TGFβ neutralizing antibody (n=6 each group) at 9 months of age and analyzed skeletal muscle at 4 days and 18 days after injection.
Mice were continued on oral therapy for 6 months and sacrificed. […] After 6 months of treatment, forelimb and hindlimb grip strength was assessed using an automated grip strength meter (Columbus Instruments, Columbus, Ohio). […] Total peak force (in Newtons) was determined by an electronic strain gauge as previously described and corrected for body weight (Wagner, K. R., et al. (2002) Ann Neurol 52, 832-6). […]

Fbn1C1039G/+ mice [3] = experiment: Postnatal treatment with losartan and propranolol, aorta of Fbn1C1039G/+ mice; conditions: for Aortic root growth rate: during 6 months of treatment
Source text: However, before treatment, the aortic diameter in Fbn1C1039G/+ mice was always greater than in untreated wild-type mice (1.59±0.11 mm; P<0.002).
Three independent aortic root measurements were obtained for each mouse every 2 months during the 6 months of treatment. Mice were killed at 8 months of age. […] The aortic root growth rate over this period was less in the wild-type mice than in the placebo-treated Fbn1C1039G/+ mice (P<0.0001, FIG. 21I).

C1039G/+ mice = experiment: Aortic root growth by echocardiography in C1039G/+ mice, 4 months of treatment
Protocol: Markers of TGFβ antagonism have included reduced plasma levels of free TGFβ, reduced intracellular initiation of the TGFβ signaling cascade, and reduced tissue expression of TGFβ-responsive genes. […] Three independent measurements of the aortic root were made from the long axis echo view in systole at each of 3 time points (baseline, 2 and 4 months of treatment; FIG. 8A). All analyses were performed blinded to genotype and treatment arm. […] This represents the first therapeutic strategy for MFS that derives from interrogation of disease pathogenesis and the first possibility for primary prevention of disease manifestations.

[4] = 6 months of treatment, monopotassium salt

For CCCCc1nc(Cl)c(CO)n1Cc1ccc(-c2ccccc2-c2nnn[nH]2)cc1.[K] [losartan, 2-butyl-4-chloro-1-[p-(o-1H-tetrazol-5-ylphenyl)benzyl]imidazole-5-methanol monopotassium salt], the Mean linear intercept (Fbn1C1039G/+ mice [1]; losartan from 7 weeks of age, 6 months, placebo 84.3±15, wild-type 41.3±5) was 53.9±12 μm, the “Distal airspace caliber / alveolar septation, in words” value (Fbn1C1039G/+ mice [1]; listed as Losartan) was “rescued; also recorded: normalization of the caliber of the distal airspace” and the “Distal airspace caliber / alveolar septation, in words” value (Fbn1C1039G/+ mice [1]) was “reduced”. The “Muscle regeneration after cardiotoxin injury, in words” value (Fbn1C1039G/+ mice [2]; listed as Losartan) was “rescued; also recorded: normal initiation of muscle regeneration”, the “Muscle regeneration after cardiotoxin injury, in words” value (Fbn1C1039G/+ mice [2]) was “markedly improved” and the “Aortic wall / elastic fiber architecture” value (Fbn1C1039G/+ mice [3]; [4]) was “full normalization relative to wild-type mice”. The Aortic wall thickness (Fbn1C1039G/+ mice [3]; [4]) was “full normalization relative to wild-type mice; also recorded: indistinguishable from that seen in wild-type mice”, the “Aortic root growth rate” value (Fbn1C1039G/+ mice [3]; listed as Losartan, monopotassium salt) was “normalizes growth rate” and the “Aortic root growth rate” value (Fbn1C1039G/+ mice [3]; monopotassium salt) was “indistinguishable from that in the wild-type group”. The “Elastic fiber fragmentation (VVG staining)” value (Fbn1C1039G/+ mice [3]; from 7 weeks of age, 6 months, drinking water, monopotassium salt) was “prevented elastic fiber fragmentation; also recorded: Elastic lamellae are intact”, the “TGF-β signaling in aortic media (nuclear pSmad2)” value (Fbn1C1039G/+ mice [3]; from 7 weeks of age, 6 months, monopotassium salt) was “blunted TGF-β signaling; also recorded: Nuclear pSmad2 staining is decreased” and the “Absolute diameter of the aortic root at the end of treatment” value (Fbn1C1039G/+ mice [3]; versus untreated wild-type littermates) was “similar”. For the same molecule, the “Aortic growth during the 4 months of treatment” value (C1039G/+ mice; C1039G/+ mice from 7 weeks of age, losartan 50 mg/kg or propranolol 40 mg/kg, aortic root, echo, placebo 0.44±0.09) was 0.03±0.07 mm and the “Aortic growth / protection, in words” value (C1039G/+ mice; C1039G/+ mice, compared with wild-type or with losartan) was “indistinguishable from that seen in wild-type mice”.

Reference: patent US8597646B2, “Methods and compositons featuring TGF-beta antagonists for the treatment of marfan syndrome and associated disorders” (The Johns Hopkins University, priority 2005, dated 2013)
